Laboratory results published in PMC10562414, “GLP-1R signaling neighborhoods associate with the susceptibility to adverse drug reactions of incretin mimetics” (Nature Communications, 2023).

Tests used:
[1] = test system: HEK293 cells without GLP-1R (phosphoproteome); assay: Phosphoproteomics, untransfected / mock-transfected control cells, 30 min; format: cell-based, human; details: mock transfection, 1 μM, vs vehicle
Experimental: P values were calculated by a two-sided unpaired t-test.
HEK293 cells (350,000 cells/mL) were transfected in suspension using 3 μg of linear PEI (MW 25,000) per 1 μg of plasmid DNA and seeded onto poly-D-lysine-coated 60 mm dishes at a density of 1,750,000 cells per dish. After a 24-h incubation, cells were washed twice with PBS and placed in starvation media (DMEM with penicillin/streptomycin). After a 48-h incubation, cells were washed twice with HBSS and maintained in the same buffer. […] Cell extracts were prepared as previously described[64]–[66]. In short, 200 μL of the lysis buffer preheated at 95 °C (4% sodium dodecyl sulfate in 50 mM Tris adjusted to pH 8.5) was added to the cells. The samples were then denatured at 95 °C for 10 min, placed on ice and then sonicated using a probe sonicator (3 sec on, 3 sec off pulse, 1 min, 30% amplitude) (Branson). Lysate protein concentration was determined using the Pierce bicinchoninic acid assay kit (Thermo Fisher Scientific) according to the manufacturer’s instructions. The lysates were reduced using 5 mM dithiothreitol for 1 h at room temperature and alkylated using 15 mM iodoacetamide for 1 h at room temperature in the dark. Proteins were precipitated and digested on beads using MagReSyn Amine magnetic beads (ReSyn Biosciences) according to the manufacturer’s instructions. Protein digestion was conducted overnight at 37 °C with lysyl endopeptidase (LysC, Wako) (1:150 LysC/protein, w/w) and trypsin (1:300 trypsin/protein, w/w). 20% TFA, 2 M glycolic acid in 80% ACN were added to the samples at a 1:1 ratio for phosphopeptide enrichment using MagReSyn TiO2 magnetic beads (ReSyn Biosciences) according to the manufacturer’s instructions. The enriched phosphopeptides were dried overnight in a SpeedVac, resuspended into 5% formic acid (FA), desalted using StageTip (Thermo Fisher Scientific) according to the manufacturer’s instructions and dried in a SpeedVac. The experiment was performed in biological triplicates.
All parameters and settings regarding the acquisition of the proteomics data can be found in Supplementary Data 11, 12. For data acquisition, the instrument was set to peptide mode, with a trapping pressure set as low (2mTorr). An EASY-Spray Source (Thermo Fisher Scientific) was used and the column temperature was maintained with the integrated, temperature-controlled heater at 55 °C throughout the experiment. For the data presented in Fig. 5d, the column was heated at 50 °C following the manufacturer’s instructions (IonOpticks).
Acquired raw files were converted to mzML format by MSConvert (version 3.0.21258)[67] applying peak picking of the mass spectra with the vendor-provided algorithm (Thermo Fisher Scientific). The mzML files were analyzed using the FragPipe GUI v18 for both library and DIA search. […] Trypsin with up to 2 missed cleavages was set as digestion enzyme, oxidation of methionine, acetylation of the N-terminus and phosphorylation on serine, threonine and tyrosine (maximal occurrence was set to three) were set as variable modifications. Carbamidomethylation of cysteine residues was set as a fixed modification. Peptide length was restricted to 7 to 50 amino acids, and 500 to 5000 Da. […] DIA files were analyzed by DIA-NN 1.8.1[71], [72] using the previously generated library and monitor-command mode. Peptide quantification was performed based on the fragment elution profiles from the MS2 level (area under the curve). […]

GLP-1R = GLP-1R (Homo sapiens, UniProt P43220); assay: ebBRET pathway activation (15 pathways) at the endoplasmic reticulum (tdrGFP-PTP1B); format: cell-based; details: for Emax: Endoplasmic reticulum; for Efficacy (normalized) / Potency (logEC50): endoplasmic reticulum
GLP-1R, sequence (P43220 24-463): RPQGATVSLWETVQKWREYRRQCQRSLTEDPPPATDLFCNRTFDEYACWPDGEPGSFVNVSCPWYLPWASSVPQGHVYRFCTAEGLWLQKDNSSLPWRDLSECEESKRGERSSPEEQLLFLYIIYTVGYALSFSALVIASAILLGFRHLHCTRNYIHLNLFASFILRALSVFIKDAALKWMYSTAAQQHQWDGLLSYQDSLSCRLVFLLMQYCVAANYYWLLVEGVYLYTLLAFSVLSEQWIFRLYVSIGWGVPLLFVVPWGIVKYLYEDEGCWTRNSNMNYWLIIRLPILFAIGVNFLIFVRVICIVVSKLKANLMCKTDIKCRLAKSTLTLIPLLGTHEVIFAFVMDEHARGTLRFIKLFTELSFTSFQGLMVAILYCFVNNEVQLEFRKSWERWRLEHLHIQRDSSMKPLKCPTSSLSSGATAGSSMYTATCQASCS
Experimental: Subcellular resolution was achieved by using organelle-specific energy acceptors for early endosomes, the Golgi apparatus and the endoplasmic reticulum.
Data are represented as the mean ± SEM (n = 3 biologically independent experiments). EE early endosomes, GA Golgi apparatus, ER endoplasmic reticulum.
HEK293 cells were cultured in DMEM supplemented with 10% FBS, 1% penicillin/streptomycin, propagated in plastic flasks and grown at 37 °C in 5% CO2 and 90% humidity. […] After a 48-hour incubation, cells were washed once with HBSS and maintained in the same buffer.
Best fit values were excluded if EC50 was outside of the concentration range tested or if the span was negative. […] All further data processing was performed in R (version 4.2.1).
Pharmacological characterization of GLP-1R agonist signaling
profiles at the endoplasmic reticulum. a, Illustration depicting the ebBRET approach to
monitoring signaling at the endoplasmic reticulum. b, Concentration-response curves of GLP-1R
agonists across 15 pathways at the endoplasmic reticulum using tdrGFP-P TP1B. Data are
represented by the non-linear fit and sc aled according to the highest responding drug (n=3
biologically independent samples). Drug-s pecific polar area diagrams for efficacy (normalized
endoplasmic reticulum. Drugs were deemed to activate a given pathway after comparing
the top and bottom parameters from non-linear regression by one-sided extra sum-o f-
similarity index for efficacy (e) and potency (f) quantifies similarities and differences across drug
Drug- induced transducer engagement by GLP-1R at the
endoplasmic reticulum. Agonist concentration response curves for 15 transducers at the
endoplasmic reticulum. Drugs were deemed to activate a given pathway after comparing the top
and bottom parameters from non-linear regres sion by one-sided extra s um-o f-s quares F-t est
Data are represented as the
mean ± SEM (n=3 biologically independent samples). Sigmoidal dose-r esponse curves are
Polar area diagrams depict pathway activation at the endoplasmic
reticulum. Pathway-specific polar area diagrams for efficacy (normalized to the highest
were deemed to activate a given pathway after comparing the top and bottom parameters from
non-linear regression by one-sided extra sum-o f-s quares F-t est followed by Bonferroni

N#Cc1ccc(COc2cccc(C3CCN(Cc4nc5ccc(C(=O)O)cc5n4C[C@@H]4CCO4)CC3)n2)c(F)c1 [Danuglipron]
log2.foldchange, EIF3J S11 ([1]; p 0.0145494, n = 3): -0.5603 | log2.foldchange, VPS51 S18 (peptide ...EAPER) ([1]; p 0.168261, n = 3): -0.2294 | log2.foldchange, VPS51 S18 (peptide ...EAPERR) ([1]; p 0.181448, n = 3): 0.6501 | log2.foldchange, VPS51 S10 ([1]; p 0.364227, n = 3): 0.2093 | log2.foldchange, PABPN1 S19 ([1]; p 0.447985, n = 3): 0.07218 | Emax (GLP-1R; GRK/Gβγ): 0.1421 | Emax (GLP-1R; Gα11): 0 | Emax (GLP-1R; Gα12): 0 | Emax (GLP-1R; Gα13): 0 | Emax (GLP-1R; Gα14): 0 | Emax (GLP-1R; Gα15): 0 | Emax (GLP-1R; Gαi1): 0 | Emax (GLP-1R; Gαi2): 0 | Emax (GLP-1R; Gαi3): 0 | Emax (GLP-1R; GαoA): 0 | Emax (GLP-1R; GαoB): 0 | Emax (GLP-1R; Gαq): 0 | Emax (GLP-1R; Gαs): 0.2391 | Emax (GLP-1R; Gαz): 0 | Emax (GLP-1R; βARR): 0.08276 | mGs recruitment at the endoplasmic reticulum, in words (GLP-1R; Rluc8-mGs, tdrGFP-PTP1B, 60 min, n = 3): the only drug capable of recruiting mGs to the endoplasmic reticulum | Efficacy (normalized) (GLP-1R; GRK2/Gβγ, Supplementary Fig. 15c): 0.6257 | Efficacy (normalized) (GLP-1R; Gα11, Supplementary Fig. 15c): 0 | Potency (logEC50) (GLP-1R; Gα11, Supplementary Fig. 15d): 0 | Efficacy (normalized) (GLP-1R; Gα12, Supplementary Fig. 15c): 0 | Potency (logEC50) (GLP-1R; Gα12, Supplementary Fig. 15d): 0 | Efficacy (normalized) (GLP-1R; Gα13, Supplementary Fig. 15c): 0 | Potency (logEC50) (GLP-1R; Gα13, Supplementary Fig. 15d): 0 | Efficacy (normalized) (GLP-1R; Gα14, Supplementary Fig. 15c): 0 | Potency (logEC50) (GLP-1R; Gα14, Supplementary Fig. 15d): 0 | Efficacy (normalized) (GLP-1R; Gα15, Supplementary Fig. 15c): 0 | Potency (logEC50) (GLP-1R; Gα15, Supplementary Fig. 15d): 0 | Efficacy (normalized) (GLP-1R; Gαi1, Supplementary Fig. 15c): 0 | Potency (logEC50) (GLP-1R; Gαi1, Supplementary Fig. 15d): 0 | Efficacy (normalized) (GLP-1R; Gαi2, Supplementary Fig. 15c): 0 | Potency (logEC50) (GLP-1R; Gαi2, Supplementary Fig. 15d): 0 | Efficacy (normalized) (GLP-1R; Gαi3, Supplementary Fig. 15c): 0 | Potency (logEC50) (GLP-1R; Gαi3, Supplementary Fig. 15d): 0 | Efficacy (normalized) (GLP-1R; GαoA, Supplementary Fig. 15c): 0 | Potency (logEC50) (GLP-1R; GαoA, Supplementary Fig. 15d): 0 | Efficacy (normalized) (GLP-1R; GαoB, Supplementary Fig. 15c): 0 | Potency (logEC50) (GLP-1R; GαoB, Supplementary Fig. 15d): 0 | Efficacy (normalized) (GLP-1R; Gαq, Supplementary Fig. 15c): 0 | Potency (logEC50) (GLP-1R; Gαq, Supplementary Fig. 15d): 0 | Efficacy (normalized) (GLP-1R; Gαs, Supplementary Fig. 15c): 1 | Potency (logEC50) (GLP-1R; Gαs, Supplementary Fig. 15d): 0.2956 | Efficacy (normalized) (GLP-1R; Gαz, Supplementary Fig. 15c): 0 | Potency (logEC50) (GLP-1R; Gαz, Supplementary Fig. 15d): 0 | Efficacy (normalized) (GLP-1R; βARR2, Supplementary Fig. 15c): 0.2909 | Potency (logEC50) (GLP-1R; βARR2, Supplementary Fig. 15d): 0.3992
